Laboratory results as given in publication PMC12121777 (PLOS One, 2025).
Values after ≈ are worked out from the molar mass of the structure shown. Read-outs that look alike come from different tables or passages of the source.

Columns and labels:
Assay in all cases: microbe, parasite or virus in culture
Format in all cases: cell-based
Mtb 234/2005 = conditions: Mycobacterium tuberculosis, read-out: MIC Mtb 234/2005
Mtb Praha 4 = conditions: Mycobacterium tuberculosis, read-out: MIC Mtb Praha 4
Mtb Praha 131 = conditions: Mycobacterium tuberculosis, read-out: MIC Mtb Praha 131
Mtb Praha 1 = conditions: Mycobacterium tuberculosis, read-out: MIC Mtb Praha 1
Mtb 7357/1998 = conditions: Mycobacterium tuberculosis, read-out: MIC Mtb 7357/1998
Mtb 8666/2010 = conditions: Mycobacterium tuberculosis, read-out: MIC Mtb 8666/2010
Mtb 9449/2007 = conditions: Mycobacterium tuberculosis, read-out: MIC Mtb 9449/2007

SMILES | MIC (Mtb 234/2005; 234/2005, 336 h) | MIC (Mtb 234/2005; 234/2005, 504 h) | MIC (Mtb Praha 4; PRAHA4, 336 h) | MIC (Mtb Praha 4; PRAHA4, 504 h) | MIC (Mtb Praha 131; PRAHA131, 336 h) | MIC (Mtb Praha 131; PRAHA131, 504 h) | MIC (Mtb Praha 1; PRAHA1, 336 h) | MIC (Mtb Praha 1; PRAHA1, 504 h) | MIC (Mtb 7357/1998; 7357/1998, 336 h) | MIC (Mtb 7357/1998; 7357/1998, 504 h) | MIC (Mtb 8666/2010; 8666/2010, 336 h) | MIC (Mtb 8666/2010; 8666/2010, 504 h) | MIC (Mtb 9449/2007; 9449/2007, 336 h) | MIC (Mtb 9449/2007; 9449/2007, 504 h)
CCCCCCCNC(=O)NNC(=O)c1cc([N+](=O)[O-])cc([N+](=O)[O-])c1 [Compound 4g, 2-(3,5-Dinitrobenzoyl)-N-heptylhydrazine-1-carboxamide] | 1 µM (≈ 0.367 µg/mL) | 2 µM (≈ 0.735 µg/mL) | 1 µM (≈ 0.367 µg/mL) | 1 µM (≈ 0.367 µg/mL) | 1 µM (≈ 0.367 µg/mL) | 2 µM (≈ 0.735 µg/mL) | 1 µM (≈ 0.367 µg/mL) | 2 µM (≈ 0.735 µg/mL) | 1 µM (≈ 0.367 µg/mL) | 1 µM (≈ 0.367 µg/mL) | 1 µM (≈ 0.367 µg/mL) | 1 µM (≈ 0.367 µg/mL) | 1 µM (≈ 0.367 µg/mL) | 1 µM (≈ 0.367 µg/mL)
CCCCCCCCNC(=O)NNC(=O)c1cc([N+](=O)[O-])cc([N+](=O)[O-])c1 [Compound 4h, 2-(3,5-Dinitrobenzoyl)-N-octylhydrazine-1-carboxamide] | 1 µM (≈ 0.381 µg/mL) | 1 µM (≈ 0.381 µg/mL) | 1 µM (≈ 0.381 µg/mL) | 1 µM (≈ 0.381 µg/mL) | 1 µM (≈ 0.381 µg/mL) | 1 µM (≈ 0.381 µg/mL) | 1 µM (≈ 0.381 µg/mL) | 1 µM (≈ 0.381 µg/mL) | 1 µM (≈ 0.381 µg/mL) | 1 µM (≈ 0.381 µg/mL) | 1 µM (≈ 0.381 µg/mL) | 1 µM (≈ 0.381 µg/mL) | 1 µM (≈ 0.381 µg/mL) | 1 µM (≈ 0.381 µg/mL)
CCCCCCCCCNC(=O)NNC(=O)c1cc([N+](=O)[O-])cc([N+](=O)[O-])c1 [Compound 4i, 2-(3,5-Dinitrobenzoyl)-N-nonylhydrazine-1-carboxamide] | 1 µM (≈ 0.395 µg/mL) | 2 µM (≈ 0.791 µg/mL) | 1 µM (≈ 0.395 µg/mL) | 1 µM (≈ 0.395 µg/mL) | 1 µM (≈ 0.395 µg/mL) | 2 µM (≈ 0.791 µg/mL) | 1 µM (≈ 0.395 µg/mL) | 2 µM (≈ 0.791 µg/mL) | 1 µM (≈ 0.395 µg/mL) | 1 µM (≈ 0.395 µg/mL) | 1 µM (≈ 0.395 µg/mL) | 1 µM (≈ 0.395 µg/mL) | 1 µM (≈ 0.395 µg/mL) | 1 µM (≈ 0.395 µg/mL)
CCCCCCCCCCCCNC(=S)NNC(=O)c1cc([N+](=O)[O-])cc([N+](=O)[O-])c1 [Compound 4s, 2-(3,5-Dinitrobenzoyl)-N-dodecylhydrazine-1-carbothioamide] | 2 µM (≈ 0.907 µg/mL) | 4 µM (≈ 1.81 µg/mL) | 2 µM (≈ 0.907 µg/mL) | 2 µM (≈ 0.907 µg/mL) | 2 µM (≈ 0.907 µg/mL) | 4 µM (≈ 1.81 µg/mL) | 2 µM (≈ 0.907 µg/mL) | 2 µM (≈ 0.907 µg/mL) | 1 µM (≈ 0.454 µg/mL) | 2 µM (≈ 0.907 µg/mL) | 1 µM (≈ 0.454 µg/mL) | 2 µM (≈ 0.907 µg/mL) | 2 µM (≈ 0.907 µg/mL) | 2 µM (≈ 0.907 µg/mL)
CCCCNc1nnc(-c2cc([N+](=O)[O-])cc([N+](=O)[O-])c2)o1 [Compound 5d, N-Butyl-5-(3,5-dinitrophenyl)-1,3,4-oxadiazol-2-amine] | 0.5 µM (≈ 0.154 µg/mL) | 1 µM (≈ 0.307 µg/mL) | 0.5 µM (≈ 0.154 µg/mL) | 1 µM (≈ 0.307 µg/mL) | 0.5 µM (≈ 0.154 µg/mL) | 1 µM (≈ 0.307 µg/mL) | 1 µM (≈ 0.307 µg/mL) | 1 µM (≈ 0.307 µg/mL) | 0.5 µM (≈ 0.154 µg/mL) | 1 µM (≈ 0.307 µg/mL) | 0.5 µM (≈ 0.154 µg/mL) | 0.5 µM (≈ 0.154 µg/mL) | 0.5 µM (≈ 0.154 µg/mL) | 0.5 µM (≈ 0.154 µg/mL)
CCCCCNc1nnc(-c2cc([N+](=O)[O-])cc([N+](=O)[O-])c2)o1 [Compound 5e, 5-(3,5-Dinitrophenyl)-N-pentyl-1,3,4-oxadiazol-2-amine] | 0.125 µM (≈ 0.0402 µg/mL) | 0.125 µM (≈ 0.0402 µg/mL) | 0.125 µM (≈ 0.0402 µg/mL) | 0.5 µM (≈ 0.161 µg/mL) | 0.125 µM (≈ 0.0402 µg/mL) | 0.125 µM (≈ 0.0402 µg/mL) | 0.125 µM (≈ 0.0402 µg/mL) | 0.25 µM (≈ 0.0803 µg/mL) | 0.125 µM (≈ 0.0402 µg/mL) | 0.125 µM (≈ 0.0402 µg/mL) | 0.125 µM (≈ 0.0402 µg/mL) | 0.125 µM (≈ 0.0402 µg/mL) | 0.125 µM (≈ 0.0402 µg/mL) | 0.125 µM (≈ 0.0402 µg/mL)
CCCCCCNc1nnc(-c2cc([N+](=O)[O-])cc([N+](=O)[O-])c2)o1 [Compound 5f, 5-(3,5-Dinitrophenyl)-N-hexyl-1,3,4-oxadiazol-2-amine] | ≤ 0.03 µM | ≤ 0.03 µM | ≤ 0.03 µM | ≤ 0.03 µM | ≤ 0.03 µM | ≤ 0.03 µM | ≤ 0.03 µM | ≤ 0.03 µM | ≤ 0.03 µM | ≤ 0.03 µM | ≤ 0.03 µM | ≤ 0.03 µM | ≤ 0.03 µM | ≤ 0.03 µM
CCCCCCCNc1nnc(-c2cc([N+](=O)[O-])cc([N+](=O)[O-])c2)o1 [Compound 5g, 5-(3,5-Dinitrophenyl)-N-heptyl-1,3,4-oxadiazol-2-amine] | 0.06 µM (≈ 0.021 µg/mL) | 0.06 µM (≈ 0.021 µg/mL) | 0.06 µM (≈ 0.021 µg/mL) | 0.06 µM (≈ 0.021 µg/mL) | 0.06 µM (≈ 0.021 µg/mL) | 0.06 µM (≈ 0.021 µg/mL) | 0.06 µM (≈ 0.021 µg/mL) | 0.06 µM (≈ 0.021 µg/mL) | 0.06 µM (≈ 0.021 µg/mL) | 0.06 µM (≈ 0.021 µg/mL) | ≤ 0.03 µM | 0.06 µM (≈ 0.021 µg/mL) | ≤ 0.03 µM | 0.06 µM (≈ 0.021 µg/mL)
CCCCCCCCNc1nnc(-c2cc([N+](=O)[O-])cc([N+](=O)[O-])c2)o1 [Compound 5h, 5-(3,5-Dinitrophenyl)-N-octyl-1,3,4-oxadiazol-2-amine] | 0.125 µM (≈ 0.0454 µg/mL) | 0.125 µM (≈ 0.0454 µg/mL) | 0.125 µM (≈ 0.0454 µg/mL) | 0.125 µM (≈ 0.0454 µg/mL) | 0.125 µM (≈ 0.0454 µg/mL) | 0.125 µM (≈ 0.0454 µg/mL) | 0.125 µM (≈ 0.0454 µg/mL) | 0.125 µM (≈ 0.0454 µg/mL) | 0.125 µM (≈ 0.0454 µg/mL) | 0.125 µM (≈ 0.0454 µg/mL) | 0.06 µM (≈ 0.0218 µg/mL) | 0.125 µM (≈ 0.0454 µg/mL) | 0.06 µM (≈ 0.0218 µg/mL) | 0.125 µM (≈ 0.0454 µg/mL)
CCCCCCCCCNc1nnc(-c2cc([N+](=O)[O-])cc([N+](=O)[O-])c2)o1 [Compound 5i, 5-(3,5-Dinitrophenyl)-N-nonyl-1,3,4-oxadiazol-2-amine] | 0.125 µM (≈ 0.0472 µg/mL) | 0.125 µM (≈ 0.0472 µg/mL) | 0.125 µM (≈ 0.0472 µg/mL) | 0.125 µM (≈ 0.0472 µg/mL) | 0.06 µM (≈ 0.0226 µg/mL) | 0.06 µM (≈ 0.0226 µg/mL) | 0.125 µM (≈ 0.0472 µg/mL) | 0.125 µM (≈ 0.0472 µg/mL) | 0.125 µM (≈ 0.0472 µg/mL) | 0.125 µM (≈ 0.0472 µg/mL) | 0.06 µM (≈ 0.0226 µg/mL) | 0.06 µM (≈ 0.0226 µg/mL) | 0.06 µM (≈ 0.0226 µg/mL) | 0.06 µM (≈ 0.0226 µg/mL)
CCCCCCCCCCNc1nnc(-c2cc([N+](=O)[O-])cc([N+](=O)[O-])c2)o1 [Compound 5j, N-Decyl-5-(3,5-dinitrophenyl)-1,3,4-oxadiazol-2-amine] | 0.25 µM (≈ 0.0979 µg/mL) | 0.5 µM (≈ 0.196 µg/mL) | 0.25 µM (≈ 0.0979 µg/mL) | 0.5 µM (≈ 0.196 µg/mL) | 0.25 µM (≈ 0.0979 µg/mL) | 0.5 µM (≈ 0.196 µg/mL) | 0.25 µM (≈ 0.0979 µg/mL) | 0.5 µM (≈ 0.196 µg/mL) | 0.25 µM (≈ 0.0979 µg/mL) | 0.5 µM (≈ 0.196 µg/mL) | 0.25 µM (≈ 0.0979 µg/mL) | 0.5 µM (≈ 0.196 µg/mL) | 0.25 µM (≈ 0.0979 µg/mL) | 0.5 µM (≈ 0.196 µg/mL)
CCCCCCCCCCCNc1nnc(-c2cc([N+](=O)[O-])cc([N+](=O)[O-])c2)o1 [Compound 5k, 5-(3,5-Dinitrophenyl)-N-undecyl-1,3,4-oxadiazol-2-amine] | 0.25 µM (≈ 0.101 µg/mL) | 0.5 µM (≈ 0.203 µg/mL) | 0.25 µM (≈ 0.101 µg/mL) | 0.5 µM (≈ 0.203 µg/mL) | 0.25 µM (≈ 0.101 µg/mL) | 0.5 µM (≈ 0.203 µg/mL) | 0.25 µM (≈ 0.101 µg/mL) | 0.5 µM (≈ 0.203 µg/mL) | 0.25 µM (≈ 0.101 µg/mL) | 0.5 µM (≈ 0.203 µg/mL) | 0.25 µM (≈ 0.101 µg/mL) | 0.5 µM (≈ 0.203 µg/mL) | 0.25 µM (≈ 0.101 µg/mL) | 0.5 µM (≈ 0.203 µg/mL)
CCCCCCCCCCCCNc1nnc(-c2cc([N+](=O)[O-])cc([N+](=O)[O-])c2)o1 [Compound 5l, 5-(3,5-Dinitrophenyl)-N-dodecyl-1,3,4-oxadiazol-2-amine] | 0.25 µM (≈ 0.105 µg/mL) | 0.5 µM (≈ 0.21 µg/mL) | 0.25 µM (≈ 0.105 µg/mL) | 0.5 µM (≈ 0.21 µg/mL) | 0.25 µM (≈ 0.105 µg/mL) | 0.5 µM (≈ 0.21 µg/mL) | 0.25 µM (≈ 0.105 µg/mL) | 0.5 µM (≈ 0.21 µg/mL) | 0.5 µM (≈ 0.21 µg/mL) | 0.5 µM (≈ 0.21 µg/mL) | 0.25 µM (≈ 0.105 µg/mL) | 0.5 µM (≈ 0.21 µg/mL) | 0.25 µM (≈ 0.105 µg/mL) | 0.5 µM (≈ 0.21 µg/mL)
CCCCCCCCCCCCCNc1nnc(-c2cc([N+](=O)[O-])cc([N+](=O)[O-])c2)o1 [Compound 5m, 5-(3,5-Dinitrophenyl)-N-tridecyl-1,3,4-oxadiazol-2-amine] | 0.125 µM (≈ 0.0542 µg/mL) | 0.125 µM (≈ 0.0542 µg/mL) | 0.06 µM (≈ 0.026 µg/mL) | 0.125 µM (≈ 0.0542 µg/mL) | 0.125 µM (≈ 0.0542 µg/mL) | 0.125 µM (≈ 0.0542 µg/mL) | 0.125 µM (≈ 0.0542 µg/mL) | 0.125 µM (≈ 0.0542 µg/mL) | 0.25 µM (≈ 0.108 µg/mL) | 0.25 µM (≈ 0.108 µg/mL) | 0.06 µM (≈ 0.026 µg/mL) | 0.125 µM (≈ 0.0542 µg/mL) | 0.06 µM (≈ 0.026 µg/mL) | 0.125 µM (≈ 0.0542 µg/mL)
